Results taken from PMC10374968, “Drosophila class-I myosins that can impact left-right asymmetry have distinct ATPase kinetics” (The Journal of Biological Chemistry, 2023).
Read-outs that look alike come from different tables or passages of the source.

Key:
[1] = molecular target: T1, myo1D (myosin-1D; myo31DF) (Drosophila melanogaster, UniProt Q23978); assay: stopped-flow pyrene-actin fluorescence, slow-phase amplitude vs MgADP, quadratic fit; format: binding; set-up: full-length, C-terminal FLAG-Avi tags kept (biotinylated for gliding); baculovirus, Sf9 or Hi5 insect cells; heavy chain 117 kDa, calmodulin light chains; with Calmodulin (Gallus gallus, recombinant); Actin, alpha skeletal muscle (Oryctolagus cuniculus); conditions: actomyosin complex; chased with 1 mM MgATP; KMg25: 10 mM Mops pH 7.0, 25 mM KCl, 1 mM MgCl2, 1 mM EGTA, 1 mM DTT; 20 C
[2] = molecular target: T1, myo1D (myosin-1D; myo31DF); conditions: read-out: Myo1D; rapid-equilibrium binding step to actomyosin (printed in μM, used as association constant in Equation 2); KMg25 pH 7.0, 1 mM MgCl2; 20 C
[3] = molecular target: myo1C (myosin-1C; myo61F) (Drosophila melanogaster, UniProt Q23979); conditions: read-out: Myo1C; rapid-equilibrium binding step to actomyosin (printed in μM, used as association constant in Equation 2); KMg25 pH 7.0, 1 mM MgCl2; 20 C
myo1C (myosin-1C; myo61F), sequence (Q23979 whole entry): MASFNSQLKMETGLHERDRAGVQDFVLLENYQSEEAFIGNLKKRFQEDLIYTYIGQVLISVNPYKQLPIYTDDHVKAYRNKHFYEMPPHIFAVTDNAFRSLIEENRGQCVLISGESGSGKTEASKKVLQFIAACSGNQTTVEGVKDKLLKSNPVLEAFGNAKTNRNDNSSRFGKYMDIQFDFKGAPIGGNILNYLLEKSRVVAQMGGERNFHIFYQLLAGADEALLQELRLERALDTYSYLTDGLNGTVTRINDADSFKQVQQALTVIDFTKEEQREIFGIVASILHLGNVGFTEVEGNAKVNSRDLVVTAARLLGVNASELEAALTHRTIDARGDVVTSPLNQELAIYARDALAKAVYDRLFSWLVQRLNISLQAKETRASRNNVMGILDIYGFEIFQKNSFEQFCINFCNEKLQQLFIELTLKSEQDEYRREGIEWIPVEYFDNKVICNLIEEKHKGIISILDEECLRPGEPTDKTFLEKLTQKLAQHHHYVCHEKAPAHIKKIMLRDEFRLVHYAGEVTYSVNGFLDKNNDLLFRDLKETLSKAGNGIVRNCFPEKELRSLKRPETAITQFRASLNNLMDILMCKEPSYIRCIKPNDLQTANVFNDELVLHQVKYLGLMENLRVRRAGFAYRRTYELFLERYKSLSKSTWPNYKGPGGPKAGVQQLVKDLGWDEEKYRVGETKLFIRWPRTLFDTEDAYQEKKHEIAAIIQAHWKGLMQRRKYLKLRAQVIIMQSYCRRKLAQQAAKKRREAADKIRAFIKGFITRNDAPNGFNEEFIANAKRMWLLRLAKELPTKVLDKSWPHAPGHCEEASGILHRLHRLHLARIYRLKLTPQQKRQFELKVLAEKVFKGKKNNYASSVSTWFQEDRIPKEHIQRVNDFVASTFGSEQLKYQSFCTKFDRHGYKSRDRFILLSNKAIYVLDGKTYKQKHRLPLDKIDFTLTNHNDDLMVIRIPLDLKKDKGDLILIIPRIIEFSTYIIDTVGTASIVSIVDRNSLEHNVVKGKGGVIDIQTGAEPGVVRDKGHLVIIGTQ

T1 sequence (Q23978 whole entry): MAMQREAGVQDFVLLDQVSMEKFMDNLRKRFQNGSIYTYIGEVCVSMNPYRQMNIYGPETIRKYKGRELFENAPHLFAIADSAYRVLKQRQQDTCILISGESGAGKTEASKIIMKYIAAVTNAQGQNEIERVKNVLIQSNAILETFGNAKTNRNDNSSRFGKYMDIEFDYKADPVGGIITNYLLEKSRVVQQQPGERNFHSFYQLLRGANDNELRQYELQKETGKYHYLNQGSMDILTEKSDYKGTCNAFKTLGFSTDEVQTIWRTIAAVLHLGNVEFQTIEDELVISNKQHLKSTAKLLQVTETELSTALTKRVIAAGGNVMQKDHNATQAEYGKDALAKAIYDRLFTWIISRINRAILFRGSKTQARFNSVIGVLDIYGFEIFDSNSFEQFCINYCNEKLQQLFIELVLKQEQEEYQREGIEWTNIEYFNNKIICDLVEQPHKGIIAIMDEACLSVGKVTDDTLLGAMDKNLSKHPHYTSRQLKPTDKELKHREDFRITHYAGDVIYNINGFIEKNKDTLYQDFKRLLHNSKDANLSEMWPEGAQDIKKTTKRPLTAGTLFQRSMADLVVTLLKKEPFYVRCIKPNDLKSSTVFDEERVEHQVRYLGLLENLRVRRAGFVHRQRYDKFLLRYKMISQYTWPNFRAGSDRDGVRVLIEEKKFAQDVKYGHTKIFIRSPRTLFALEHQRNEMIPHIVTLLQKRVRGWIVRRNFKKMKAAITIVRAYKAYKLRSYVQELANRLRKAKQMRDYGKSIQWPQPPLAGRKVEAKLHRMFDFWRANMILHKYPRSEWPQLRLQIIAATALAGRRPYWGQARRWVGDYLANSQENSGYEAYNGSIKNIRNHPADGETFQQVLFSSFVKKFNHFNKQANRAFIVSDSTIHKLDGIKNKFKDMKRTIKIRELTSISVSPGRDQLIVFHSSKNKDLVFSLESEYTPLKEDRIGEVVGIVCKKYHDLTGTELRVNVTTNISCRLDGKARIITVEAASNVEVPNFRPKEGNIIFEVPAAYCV

Row | Kd [1] [µM] | Kd [2] [µM] | Kd [3] [µM] | Structure (SMILES)
1 | 0.044 ± 0.002 |  |  | Nc1ncnc2c1ncn2[C@@H]1O[C@H](COP(=O)(O)OP(=O)(O)O)[C@@H](O)[C@H]1O [MgADP]
2 |  | 118 ± 15 | 73 ± 11 | Nc1ncnc2c1ncn2[C@@H]1O[C@H](COP(=O)(O)OP(=O)(O)OP(=O)(O)O)[C@@H](O)[C@H]1O [MgATP]
